Assay results as given in PubChem BioAssay (NCI).
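Compound exposure: 48 hours, 5 concentrations, 96-well plates. TGI is the concentration that stops growth completely.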

How the values were obtained:
Experiment in all cases: NCI anticancer screen, dose series, 48 h
SN12C renal = system: SN12C renal
SR leukemia = system: SR leukemia
M14 melanoma = system: M14 melanoma
K-562 leukemia = system: K-562 leukemia
HS 578T breast = system: HS 578T breast
HOP-62 NSCLC = system: HOP-62 NSCLC
NCI-H226 lung = system: NCI-H226 lung
U251 CNS = system: U251 CNS
SNB-75 CNS = system: SNB-75 CNS
HL-60(TB) leukemia = system: HL-60(TB) leukemia
CAKI-1 renal = system: CAKI-1 renal
UACC-257 melanoma = system: UACC-257 melanoma
MDA-N = system: MDA-N
RPMI-8226 leukemia = system: RPMI-8226 leukemia
HT29 colon = system: HT29 colon
BT-549 breast = system: BT-549 breast
IGROV1 ovarian = system: IGROV1 ovarian
LOX IMVI melanoma = system: LOX IMVI melanoma
HCT-116 colon = system: HCT-116 colon
NCI-H522 lung = system: NCI-H522 lung

SMILES | TGI (SN12C renal) [µM] | TGI (SR leukemia) [µM] | TGI (M14 melanoma) [µM] | TGI (K-562 leukemia) [µM] | TGI (HS 578T breast) [µM] | TGI (HOP-62 NSCLC) [µM] | TGI (NCI-H226 lung) [µM] | TGI (U251 CNS) [µM] | TGI (SNB-75 CNS) [µM] | TGI (HL-60(TB) leukemia) [µM] | TGI (CAKI-1 renal) [µM] | TGI (UACC-257 melanoma) [µM] | TGI (MDA-N) [µM] | TGI (RPMI-8226 leukemia) [µM] | TGI (HT29 colon) [µM] | TGI (BT-549 breast) [µM] | TGI (IGROV1 ovarian) [µM] | TGI (LOX IMVI melanoma) [µM] | TGI (HCT-116 colon) [µM] | TGI (NCI-H522 lung) [µM]
O/N=C(/C(Cl)=C(Cl)Cl)C(Cl)Cl | 34.1 | 26.7 | 40.8 | 38 | 61.3 | 46.9 | > 100 | 35.2 | 43.7 | 26.3 | 87.3 | 40.6 | 32.8 | 50.2 | 30.3 | 41.4 | 44.6 | 37.3 | 34.8 | –
COC(=O)CCC1=NCC(C)(C)O1 | > 10 | > 10 | > 10 | – | > 10 | > 10 | > 10 | > 10 | > 10 | – | > 10 | > 10 | > 10 | > 10 | > 10 | > 10 | > 10 | > 10 | > 10 | > 10
COc1cc2cc(C(=O)N3CC(CCl)c4ccc([N+](C)(C)Cc5ccc([N+](=O)[O-])cc5)cc43)[nH]c2c(OC)c1OC (stereo unspecified) | 31 | 2.31 | 40.5 | 5.61 | 47 | > 100 | 15.4 | 7.36 | 11.1 | 5.55 | 5.64 | – | 16.5 | 4.62 | 5.83 | 35.6 | – | – | – | 3.47
CNCCN[C@@H]1c2cc3c(cc2[C@@H](c2cc(OC)c(O)c(OC)c2)[C@H]2C(=O)OC[C@@H]21)OCO3 | 0.793 | 0.287 | 4.68 | > 100 | 1.34 | 0.678 | 0.686 | 2.13 | 1.12 | 0.0483 | 6.86 | 7.61 | 3.26 | 0.634 | 1.89 | 0.814 | 2.63 | 1.35 | 5.27 | 1.93
O/N=C1\CC2(N3CCOCC3)CCC1(c1ccccc1)CC2 | > 100 | > 100 | > 100 | > 100 | > 100 | > 100 | > 100 | > 100 | > 100 | > 100 | > 100 | > 100 | > 100 | > 100 | > 100 | > 100 | > 100 | > 100 | > 100 | > 100
O=C1c2c(ccc3c2CCC3)CC1Cc1ccc2c(c1)CCC2 (stereo unspecified) | > 100 | 30.9 | > 100 | 80.1 | 61.6 | 94.2 | > 100 | > 100 | 56 | 21.7 | – | 61.9 | > 100 | 53.1 | 60.9 | > 100 | > 100 | > 100 | 47.2 | –
Cn1c2c(c3ccccc31)CCN=C2C1CCCOC1=O (stereo unspecified) | > 100 | > 100 | > 100 | – | > 100 | > 100 | > 100 | > 100 | > 100 | > 100 | > 100 | > 100 | > 100 | – | > 100 | > 100 | > 100 | > 100 | > 100 | > 100
CCOC(=O)c1nc2ccccc2nc1NCc1ccc(OC)c(OC)c1 | > 100 | > 100 | – | > 100 | > 100 | > 100 | > 100 | > 100 | > 100 | > 100 | > 100 | > 100 | > 100 | > 100 | > 100 | > 100 | > 100 | > 100 | > 100 | > 100
N#CCCN(CCC#N)c1ccc(C(N=Nc2ccc(Cl)cc2)=Nc2ccccc2)cc1 | 33.5 | > 100 | 26.9 | > 100 | 35 | 28.2 | 31.9 | 32.4 | 31.8 | – | 26.1 | 20.8 | 22.8 | > 100 | 34.3 | 16.6 | 24.6 | – | 24.4 | 30.4
CC(=O)NC1C(OC(C)C(=O)NC(C(=O)NC(CCC(=O)NCCCNC2c3ccccc3Nc3cccc([N+](=O)[O-])c32)C(N)=O)C(C)C)C(O)C(CO)OC1(C)OCc1ccccc1 (stereo unspecified) | 3.82 | 0.634 | 12.2 | 7.65 | 4.75 | 5.87 | 2.95 | 3.22 | 4.34 | – | 3.05 | 5.14 | 4.78 | 1.01 | 0.417 | 4.1 | 3.2 | 4.6 | 1.3 | 2.37
O=C(O)Cc1ccc(Nc2nc3ccccc3nc2C(=O)O)cc1 | > 100 | > 100 | > 100 | – | > 100 | > 100 | > 100 | > 100 | > 100 | > 100 | > 100 | > 100 | > 100 | – | > 100 | > 100 | > 100 | > 100 | > 100 | > 100
CC(=O)N1c2ccccc2C2=NN(C)C(=N)SC21 (stereo unspecified) | > 100 | > 100 | > 100 | > 100 | > 100 | > 100 | > 100 | > 100 | > 100 | > 100 | – | > 100 | > 100 | > 100 | > 100 | > 100 | – | > 100 | > 100 | > 100
O=[N+]([O-])C1=Cc2cc(Cl)ccc2OC1c1cccc2ccccc12 (stereo unspecified) | 2.54 | 2.07 | 3.66 | 5.68 | 7.71 | 2.55 | 4.42 | 3.17 | 1.95 | > 100 | 1.22 | 3.4 | 3.41 | – | 1.79 | 1.01 | 2.87 | 0.983 | 0.355 | 2.9
O=C1NC(N2CCCC(CO)C2)=N/C1=C\c1ccccc1 (stereo unspecified) | > 100 | > 100 | > 100 | – | > 100 | > 100 | > 100 | > 100 | > 100 | > 100 | > 100 | > 100 | > 100 | > 100 | > 100 | > 100 | > 100 | > 100 | > 100 | > 100
COc1ccc(C2C(C#N)=C(S)N(C3OC(COC(C)=O)C(OC(C)=O)C(OC(C)=O)C3OC(C)=O)C(C)=C2C(C)=O)cc1 (stereo unspecified) | > 100 | > 100 | > 100 | > 100 | > 100 | > 100 | – | > 100 | > 100 | > 100 | > 100 | > 100 | > 100 | > 100 | > 100 | > 100 | > 100 | > 100 | > 100 | –
O=C(/C=C/c1ccc(OCc2ccccc2)cc1)NCc1ccc(C(=O)NCCc2c[nH]c3ccccc23)cc1 | > 100 | > 55.3 | > 62 | > 100 | 29.9 | 15.6 | > 58.8 | 20.5 | 38.1 | > 100 | 45.4 | > 100 | > 100 | > 100 | > 56.6 | > 100 | 56.1 | > 100 | > 100 | –
Cc1csc(NNC(N)=O)n1 | > 100 | > 100 | > 100 | – | > 100 | > 100 | > 100 | > 100 | > 100 | > 100 | > 100 | > 100 | > 100 | – | > 100 | > 100 | > 100 | > 100 | > 100 | > 100
CCOC(=O)/C(=C\NC(C)(C)C)c1nc2ccccc2[nH]1 | 75.6 | 28.3 | 39.7 | – | 45.8 | 58.5 | 47 | – | 68.7 | 34 | 96.2 | 35.2 | 52.8 | 39.2 | 42.6 | 68.3 | 69.4 | 44.6 | 95.2 | 45.9
Cn1c(=O)c2sc3c4sc5c(=O)n(C)c6ccccc6c5c4sc3c2c2ccccc21 | > 100 | > 100 | > 100 | > 100 | > 100 | > 100 | > 100 | > 100 | > 100 | > 100 | > 100 | > 100 | > 100 | > 100 | > 100 | > 100 | > 100 | – | > 100 | > 100
